Test results as given in US10597367B2, “Metabotropic glutamate receptor negative allosteric modulators (NAMs) and uses thereof” (Sanford Burnham Prebys Medical Discovery Institute, priority 2014, dated 2020).

Tests used:
[1] = Microsomal stability in vitro assay; assay type: in vitro ADME; details: pooled rat liver microsomes, 4 μM compound, NADPH
Description: Pooled rat liver microsomes (BD Biosciences, #452701) were preincubated with test compounds at 37.5° C. for 5 min in the absence of NADPH. The reaction was initiated by addition of NADPH and incubated under the same conditions. The final incubation concentrations were 4 μM test compound, 2 mM NADPH, and 1 mg/mL (total protein) liver microsomes in phosphate-buffered saline (PBS) at pH 7.4. One aliquot (100 μL) of the incubation mixture was withdrawn at 15 min time points and combined immediately with 100 μL of ACN/MeOH. After mixing, the sample was centrifuged at approximately 13000 rpm for 12 min. The supernatant was filtered and transferred into an autosampler vial and the amount of test compound was quantified using a Shimadzu LCMS 2010EV mass spectrometer. The change of the AUC (area under the curve) of the parent compound as a function of time was used as a measure of microsomal stability. Test compounds were run in duplicate with a positive control.

[2] = Plasma stability in vitro assay; assay type: in vitro ADME; details: heparinized rat plasma, 100 μM, 37.5° C.
Description: A 20 μL aliquot of a 10 mM solution in DMSO of the test compound was added to 2.0 mL of heparinized rat plasma (Lampire, P1-150N) to obtain a 100 μM final solution. The mixture was incubated for 1 h at 37.5° C. Aliquots of 100 μL were taken at 15 min intervals and diluted with 100 μL of MeOH/ACN. After mixing, the sample was centrifuged at approximately 13000 rpm for 12 min. The supernatant was filtered and transferred into an autosampler vial and the amount of test compound was quantified using the Shimadzu LCMS-2010EV system. The change of the AUC of the parent compound in function of time was used as a measure of plasma stability.

Male Wistar rats = test: Forced Swim Test (FST); assay type: in vivo; details: rat, FIG. 1
Description: Male Wistar rats (Charles River, Hollister, Calif.), weighing 175-225 g (Charles River, Portage, Ind.) used for the forced swim test study were housed in pairs with food and water available ad libitum, except during testing, in a temperature and humidity controlled vivarium (21° C.). Rats were maintained on a 12-hour reverse light-dark cycle with lights on at 6 pm. All experimental procedures occurred during the dark cycle, were approved by the Institutional Animal Care and Use Committee of the Scripps Research Institute, and were in accordance with the Association for the Assessment and Accreditation of Laboratory Animal Care (AAALAC) guidelines. […]
After the habituation swim and 24 hours prior to the test swim, rats were administered one of three doses of a mGlu2/3 NAM, with doses and pretreatment time based on maximal brain penetration as determined by PK studies for each compound. Blood and brain tissue were collected immediately after the FST and the PK properties of each compound were analyzed together with FST behavior. […] Twenty-four hours after their first exposure, the animals were again placed in the swim apparatus for 5 min, and behaviors were monitored from above by video camera for subsequent analysis. The rater of the behavioral patterns was blind with respect to the experimental conditions being scored. […]

mGlu2 receptor = mGlu2 receptor (Rattus norvegicus (Rat), UniProt P31421); test: mGlu2 in vitro GIRK thallium flux assay; assay type: cell-based; details: read-out: mGlu2 EC50 (μM) (60 min); NAM; test compound incubated 60 min before EC80 glutamate; HEK-293 GIRK cells
mGlu2 receptor, sequence (P31421 19-872): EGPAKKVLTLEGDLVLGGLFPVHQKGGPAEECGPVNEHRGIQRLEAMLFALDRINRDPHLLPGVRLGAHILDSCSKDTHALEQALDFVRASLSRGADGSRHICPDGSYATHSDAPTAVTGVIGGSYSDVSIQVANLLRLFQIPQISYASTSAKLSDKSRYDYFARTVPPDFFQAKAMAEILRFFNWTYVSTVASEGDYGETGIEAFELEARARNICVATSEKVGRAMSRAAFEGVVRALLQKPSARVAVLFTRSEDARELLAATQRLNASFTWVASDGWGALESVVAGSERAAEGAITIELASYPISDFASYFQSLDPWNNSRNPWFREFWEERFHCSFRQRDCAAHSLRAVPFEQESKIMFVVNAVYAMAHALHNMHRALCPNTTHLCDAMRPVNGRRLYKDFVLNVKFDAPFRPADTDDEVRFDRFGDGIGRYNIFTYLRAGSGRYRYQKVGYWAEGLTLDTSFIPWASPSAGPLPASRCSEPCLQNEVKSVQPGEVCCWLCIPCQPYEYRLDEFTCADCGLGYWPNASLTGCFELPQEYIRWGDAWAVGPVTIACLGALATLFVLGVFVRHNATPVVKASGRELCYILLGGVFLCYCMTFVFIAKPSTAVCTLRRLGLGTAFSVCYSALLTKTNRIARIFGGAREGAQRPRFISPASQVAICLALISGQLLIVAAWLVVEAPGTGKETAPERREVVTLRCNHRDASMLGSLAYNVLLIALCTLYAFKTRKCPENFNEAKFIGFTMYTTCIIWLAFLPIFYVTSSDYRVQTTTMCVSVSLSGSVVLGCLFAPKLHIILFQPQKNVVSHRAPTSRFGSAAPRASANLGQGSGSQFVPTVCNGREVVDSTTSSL
Description: All cell culture reagents were purchased from Invitrogen Corp. (Carlsbad, Calif.) unless otherwise noted. Compound activity at the group II (mGlu2 and mGlu3) mGlus was assessed using thallium flux through GIRK channels. Briefly, cells were plated into 384-well, black-walled, clear-bottomed poly-D-lysine-coated plates at a density of 15,000 cells/20 μL/well in DMEM containing 10% dialyzed FBS, 20 mM HEPES, and 100 units/mL penicillin/streptomycin (assay media). Plated cells were incubated overnight at 37° C. in the presence of 5% CO2. […] Cells were incubated for 1 h at room temperature, and the dye exchanged to assay buffer using an ELX405, leaving 20 μL/well. Test compounds were diluted to 2 times their final desired concentration in assay buffer (0.3% DMSO final concentration). […] Cell plates and compound plates were loaded onto a kinetic imaging plate reader (FDSS 6000 or 7000; Hamamatsu Corporation, Bridgewater, N.J.). Appropriate baseline readings were taken (10 images at 1 Hz; excitation, 470±20 nm; emission, 540±30 nm) and test compounds were added in a 20 μL volume and incubated for either 2.5 min or 60 min as indicated before the addition of 10 μL of thallium buffer with or without agonist. After the addition of agonist, data were collected for approximately an additional 2.5 min. Data were analyzed using Excel (Microsoft Corp, Redmond, Wash.). The slope of the fluorescence increase beginning 5 s after thallium/agonist addition and ending 15 s after thallium/agonist addition was calculated, corrected to vehicle and maximal agonist control slope values, and plotted in using either XLfit (ID Business Solutions Ltd) or Prism software (GraphPad Software, San Diego, Calif.) to generate concentration-response curves. Potencies were calculated from fits using a four-point parameter logistic equation. For concentration-response curve experiments, compounds were serially diluted 1:3 into 10 point concentration response curves and were transferred to daughter plates using an Echo acoustic plate reformatter (Labcyte, Sunnyvale, Calif.). Test compounds were applied and followed by EC80 concentrations of glutamate.

Row | SMILES | Microsomal Stability, Percent Remaining @ 1 hour [1] [%] | Plasma Stability, Percent Remaining @ 1 hour [2] [%] | antidepressant activity in the Forced Swim Test (immobility, swimming) (Male Wistar rats) | EC50 (mGlu2 receptor) [µM]
1 | Cc1cc2c(cc1C(F)(F)F)NC(=O)CC(c1cccc(S(=O)(=O)c3ncccn3)c1)=N2 [Example 137, 7-Methyl-4-(3-(pyrimidin-2-ylsulfonyl)phenyl)-8-(trifluoromethyl)-1H-benzo[b][1,4]diazepin-2(3H)-one] | 68 | 66 |  | 
2 | O=C(O)c1ccc(F)c(-c2cccc(-c3nc(-c4ccoc4)cc(C(F)(F)F)n3)c2)c1 [Example 114, 6-Fluoro-3′-(4-(furan-3-yl)-6-(trifluoromethyl)pyrimidin-2-yl)biphenyl-3-carboxylic Acid] | 66 | 93 |  | 
3 | O=C(O)c1cc(F)cc(-c2cccc(-c3nc(-c4ccc(C(F)(F)F)nc4)cc(C(F)(F)F)n3)c2)c1 [Example 76, 5-Fluoro-3′-(4-(trifluoromethyl)-6-(6-(trifluoromethyl)pyridin-3-yl)pyrimidin-2-yl)biphenyl-3-carboxylic Acid] | 95 | 100 |  | 
4 | O=C(O)c1cc(-c2cccc(-c3nc(-c4ccccc4)cc(C(F)(F)F)n3)c2)ccc1F [Example 86, 4-Fluoro-3′-(4-phenyl-6-(trifluoromethyl)pyrimidin-2-yl)biphenyl-3-carboxylic Acid] | 100 | 100 |  | 
5 | O=C1CC(c2ccnc(Br)c2)=Nc2ccc(C(F)(F)F)cc2N1 [Example 191, 4-(2-Bromopyridin-4-yl)-8-(trifluoromethyl)-1,3-dihydro-2H-benzo[b][1,4]diazepin-2-one] |  |  | antidepressant activity by decreasing immobility and increasing swimming | 
6 | O=C1CC(c2cccc(-c3cccnc3)c2)=Nc2ccc(Br)cc2N1 [Example 179, 8-Bromo-4-(3-(pyridin-3-yl)phenyl)-1,3-dihydro-2H-benzo[b][1,4]diazepin-2-one] | 30 | 100 |  | 
7 | Cc1cc2c(cc1C(F)(F)F)NC(=O)CC(c1cccc(Sc3ncccn3)c1)=N2 [Example 136, 7-Methyl-4-(3-(pyrimidin-2-ylthio)phenyl)-8-(trifluoromethyl)-1H-benzo[b][1,4]diazepin-2(3H)-one] | 90 | 99 |  | 
8 | O=C(O)c1cc(-c2cccc(-c3nc(-c4ccsc4)cc(C(F)(F)F)n3)c2)ccc1F [Example 122, 4-Fluoro-3′-(4-(thiophen-3-yl)-6-(trifluoromethyl)pyrimidin-2-yl)-[1,1′-biphenyl]-3-carboxylic Acid] | 83 | 83 |  | 
9 | O=C(O)c1cc(F)cc(-c2cccc(-c3nsc(-c4ccoc4)n3)c2)c1 [Example 43, 5-Fluoro-3′-(5-(furan-3-yl)-1,2,4-thiadiazol-3-yl)biphenyl-3-carboxylic Acid] | 66 | 95 |  | 
10 | O=C(O)c1cc(-c2cccc(-c3csc(-c4ccccc4)n3)c2)ccc1F [Example 1, 4-Fluoro-3′-(2-phenylthiazol-4-yl)biphenyl-3-carboxylic Acid] | 3 | 93 |  | 
11 | O=C(O)c1cc(F)cc(-c2cccc(-c3nc(-c4ccco4)cc(C(F)(F)F)n3)c2)c1 [Example 89, 5-Fluoro-3′-(4-(furan-2-yl)-6-(trifluoromethyl)pyrimidin-2-yl)biphenyl-3-carboxylic Acid] | 82 | 100 |  | 
12 | O=C(O)c1ccc(F)c(-c2cccc(-c3nc(-c4ccc(C(F)(F)F)nc4)cc(C(F)(F)F)n3)c2)c1 [Example 79, 6-Fluoro-3′-(4-(trifluoromethyl)-6-(6-(trifluoromethyl)pyridin-3-yl)pyrimidin-2-yl)biphenyl-3-carboxylic Acid] | 82 | 86 |  | 
13 | Cc1cc2c(cc1C(F)(F)F)NC(=O)CC(c1cccc(Oc3cccc(C(F)(F)F)c3)c1)N2 (single isomer, unassigned) [Example 172B, 7-Methyl-8-(trifluoromethyl)-4-(3-(3-(trifluoromethyl)phenoxy)phenyl)-4,5-dihydro-1H-benzo[b][1,4]diazepin-2(3H)-one] |  |  |  | > 10
14 | N#Cc1cc(C2=Nc3ccc(C(F)(F)F)cc3NC(=O)C2)ccn1 [Example 184, 4-(2-Oxo-8-(trifluoromethyl)-2,3-dihydro-1H-benzo[b][1,4]diazepin-4-yl)picolinonitrile] | 97 | 100 |  | 
15 | Cc1cc2c(cc1C(F)(F)F)NC(=O)CC(c1cccc(Oc3cccc(Br)c3)c1)N2 (single isomer, unassigned) [Example 173B, 4-(3-(3-Bromophenoxy)phenyl)-7-methyl-8-(trifluoromethyl)-4,5-dihydro-1H-benzo[b][1,4]diazepin-2(3H)-one] |  |  |  | > 10
16 | COc1ccc(-c2cc(C(F)(F)F)nc(-c3cccc(-c4ccc(F)c(C(=O)O)c4)c3)n2)cc1 [Example 87, 4-Fluoro-3′-(4-(4-methoxyphenyl)-6-(trifluoromethyl)pyrimidin-2-yl)biphenyl-3-carboxylic Acid] | 92 | 97 |  | 
17 | O=C(O)c1cc(-c2cccc(-c3nsc(-c4ccccc4)n3)c2)ccc1F [Example 38, 4-Fluoro-3′-(5-phenyl-1,2,4-thiadiazol-3-yl)biphenyl-3-carboxylic Acid] | 2 | 65 |  | 
18 | O=C(O)c1cc(F)cc(-c2cccc(-c3csc(-c4ccccc4)n3)c2)c1 [Example 9, 5-Fluoro-3′-(2-phenylthiazol-4-yl)biphenyl-3-carboxylic Acid] | 4 | 98 |  | 
